Key:
Assay in all cases: Test B pre-/postemergence plant response
Format in all cases: in vivo
[1] = system: giant foxtail (Setaria faberii); details: for Foxtail, Giant plant response rating (0 to 100 scale): 0 is no effect, 13 to 15 days
Outline: (§1)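 Steps: sow seed in loam–sand soil and spray preemergence, or grow plants in peat-based medium to 1–4 leaves (2–18 cm) and spray postemergence; formulation is non-phytotoxic solvent plus surfactant; hold in greenhouse 13–15 days; score visually vs controls, 0 = no effect, 100 = complete control.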

[2] = system: velvetleaf (Abutilon theophrasti); details: for Velvetleaf plant response rating (0 to 100 scale): postemergence, 0 is no effect, 100 is complete control, 13 to 15 days
Outline: as §1

[3] = system: johnsongrass (Sorghum halepense); details: for Johnsongrass plant response rating (0 to 100 scale): 0 is no effect, 13 to 15 days
Outline: as §1

[4] = system: goosegrass (Eleusine indica); details: for Goosegrass plant response rating (0 to 100 scale): 0 is no effect, 13 to 15 days
Outline: as §1

[5] = system: cocklebur (Xanthium strumarium); details: for Cocklebur plant response rating (0 to 100 scale): 62 g ai/ha, 0 is no effect, 13 to 15 days
Outline: as §1

[6] = system: corn (Zea mays); details: for Corn plant response rating (0 to 100 scale): 0 is no effect, 13 to 15 days
Outline: as §1

[7] = system: morningglory (Ipomoea coccinea); details: for Morningglory plant response rating (0 to 100 scale): 0 is no effect, 13 to 15 days
Outline: as §1

[8] = system: ragweed (common ragweed, Ambrosia elatior); details: for Ragweed plant response rating (0 to 100 scale): postemergence, 0 is no effect, 100 is complete control, 13 to 15 days
Outline: as §1

[9] = system: blackgrass (Alopecurus myosuroides); details: for Blackgrass plant response rating (0 to 100 scale): 0 is no effect, 13 to 15 days
Outline: as §1

[10] = system: kochia (Kochia scoparia); details: for Kochia plant response rating (0 to 100 scale): 0 is no effect, 13 to 15 days
Outline: as §1

[11] = system: soybean (Glycine max); details: for Soybean plant response rating (0 to 100 scale): postemergence, 0 is no effect, 100 is complete control, 13 to 15 days
Outline: as §1

[12] = system: Italian ryegrass (Lolium multiflorum); details: for Ryegrass, Italian plant response rating (0 to 100 scale): postemergence, 0 is no effect, 100 is complete control, 13 to 15 days
Outline: as §1

[13] = system: green foxtail (Setaria viridis); details: for Foxtail, Green plant response rating (0 to 100 scale): 0 is no effect, 13 to 15 days
Outline: as §1

[14] = system: large crabgrass (Digitaria sanguinalis); details: for Crabgrass, Large plant response rating (0 to 100 scale): 0 is no effect, 13 to 15 days
Outline: as §1

[15] = 31 g ai/ha, postemergence, scale 0 to 100, 0 is no effect, 100 is complete control
[16] = 62 g ai/ha, postemergence, 100 is complete control
[17] = Postemergence, 125 g ai/ha, scale 0 to 100 (0 no effect, 100 complete control)
[18] = Postemergence, 250 g ai/ha, scale 0 to 100 (0 no effect, 100 complete control)
[19] = postemergence, 100 is complete control
[20] = Preemergence, 31 g ai/ha, scale 0 to 100 (0 no effect, 100 complete control)
[21] = Preemergence, 62 g ai/ha, scale 0 to 100 (0 no effect, 100 complete control)
[22] = Preemergence, 125 g ai/ha, scale 0 to 100, 0 no effect, 100 complete control
[23] = Preemergence, 250 g ai/ha, 0 to 100 scale

COCCCn1c(-c2cccc(C)c2)ncc(C(=O)C2=C(O)CCCC2=O)c1=O [Compound 118, 5-[(2-hydroxy-6-oxo-1-cyclohexane-1-yl)carbonyl]-3-(3-methoxypropyl)-2-(3-methylphenyl)-4(3H)-pyrimidinone]
Plant response rating, Foxtail, Giant [1, 15]: 75 | Foxtail, Giant plant response rating (0 to 100 scale) [1, 16]: 80 | Plant response rating, Foxtail, Giant [1, 17]: 85 | Plant response rating, Foxtail, Giant [1, 18]: 95 | Velvetleaf plant response rating (0 to 100 scale) ([2]; 62 g ai/ha): 75 | Plant response rating, Velvetleaf [2, 17]: 98 | Plant response rating, Velvetleaf [2, 18]: 100 | Plant response rating, Johnsongrass [3, 15]: 10 | Johnsongrass plant response rating (0 to 100 scale) [3, 16]: 10 | Plant response rating, Johnsongrass [3, 17]: 20 | Plant response rating, Johnsongrass [3, 18]: 35 | Plant response rating, Goosegrass [4, 15]: 55 | Goosegrass plant response rating (0 to 100 scale) [4, 16]: 65 | Plant response rating, Goosegrass [4, 17]: 80 | Plant response rating, Goosegrass [4, 18]: 90 | Plant response rating, Cocklebur [5, 15]: 40 | Cocklebur plant response rating (0 to 100 scale) [5, 19]: 40 | Plant response rating, Cocklebur [5, 17]: 85 | Plant response rating, Cocklebur [5, 18]: 98 | Plant response rating, Corn [6, 15]: 0 | Corn plant response rating (0 to 100 scale) [6, 16]: 0 | Plant response rating, Corn [6, 17]: 20 | Plant response rating, Corn [6, 18]: 25 | Plant response rating, Morningglory [7, 15]: 10 | Morningglory plant response rating (0 to 100 scale) [7, 16]: 60 | Plant response rating, Morningglory [7, 17]: 70 | Plant response rating, Morningglory [7, 18]: 80 | Ragweed plant response rating (0 to 100 scale) ([8]; 62 g ai/ha): 85 | Plant response rating, Ragweed [8, 17]: 95 | Plant response rating, Ragweed [8, 18]: 98 | Plant response rating, Blackgrass [9, 15]: 5 | Blackgrass plant response rating (0 to 100 scale) [9, 16]: 10 | Plant response rating, Blackgrass [9, 17]: 35 | Plant response rating, Blackgrass [9, 18]: 40 | Plant response rating, Kochia [10, 15]: 45 | Kochia plant response rating (0 to 100 scale) [10, 16]: 65 | Plant response rating, Kochia [10, 17]: 70 | Plant response rating, Kochia [10, 18]: 98 | Soybean plant response rating (0 to 100 scale) ([11]; 62 g ai/ha): 90 | Plant response rating, Soybean [11, 17]: 95 | Plant response rating, Soybean [11, 18]: 100 | Ryegrass, Italian plant response rating (0 to 100 scale) ([12]; 62 g ai/ha): 5 | Plant response rating, Ryegrass, Italian [12, 17]: 5 | Plant response rating, Ryegrass, Italian [12, 18]: 60 | Plant response rating, Foxtail, Green [13, 15]: 50 | Foxtail, Green plant response rating (0 to 100 scale) [13, 16]: 85 | Plant response rating, Foxtail, Green [13, 17]: 95 | Plant response rating, Foxtail, Green [13, 18]: 95 | Plant response rating, Crabgrass, Large [14, 15]: 70 | Crabgrass, Large plant response rating (0 to 100 scale) [14, 16]: 75 | Plant response rating, Crabgrass, Large [14, 17]: 80 | Plant response rating, Crabgrass, Large [14, 18]: 95

COCCn1c(-c2cc(F)cc(F)c2)ncc(C(=O)C2=C(O)CCCC2=O)c1=O [Compound 119]
Plant response rating, Foxtail, Giant [1, 15]: 75 | Foxtail, Giant plant response rating (0 to 100 scale) [1, 16]: 85 | Plant response rating, Foxtail, Giant [1, 17]: 95 | Plant response rating, Foxtail, Giant [1, 18]: 95 | Plant response rating, Foxtail, Giant [1, 20]: 55 | Plant response rating, Foxtail, Giant [1, 21]: 85 | Plant response rating, Foxtail, Giant [1, 22]: 95 | Foxtail, Giant plant response rating [1, 23]: 100 | Velvetleaf plant response rating (0 to 100 scale) ([2]; 62 g ai/ha): 80 | Plant response rating, Velvetleaf [2, 17]: 100 | Plant response rating, Velvetleaf [2, 18]: 100 | Plant response rating, Velvetleaf [2, 20]: 75 | Plant response rating, Velvetleaf [2, 21]: 80 | Plant response rating, Velvetleaf [2, 22]: 100 | Velvetleaf plant response rating [2, 23]: 100 | Plant response rating, Johnsongrass [3, 15]: 10 | Johnsongrass plant response rating (0 to 100 scale) [3, 16]: 40 | Plant response rating, Johnsongrass [3, 17]: 75 | Plant response rating, Johnsongrass [3, 18]: 80 | Plant response rating, Johnsongrass [3, 20]: 50 | Plant response rating, Johnsongrass [3, 21]: 85 | Plant response rating, Johnsongrass [3, 22]: 95 | Johnsongrass plant response rating [3, 23]: 95 | Plant response rating, Goosegrass [4, 15]: 75 | Goosegrass plant response rating (0 to 100 scale) [4, 16]: 75 | Plant response rating, Goosegrass [4, 17]: 85 | Plant response rating, Goosegrass [4, 18]: 95 | Plant response rating, Goosegrass [4, 20]: 100 | Plant response rating, Goosegrass [4, 21]: 100 | Plant response rating, Goosegrass [4, 22]: 100 | Goosegrass plant response rating [4, 23]: 100 | Plant response rating, Cocklebur [5, 15]: 0 | Cocklebur plant response rating (0 to 100 scale) [5, 19]: 10 | Plant response rating, Cocklebur [5, 17]: 80 | Plant response rating, Cocklebur [5, 18]: 95 | Plant response rating, Cocklebur [5, 20]: 0 | Plant response rating, Cocklebur [5, 22]: 70 | Cocklebur plant response rating [5, 23]: 85 | Plant response rating, Corn [6, 15]: 20 | Corn plant response rating (0 to 100 scale) [6, 16]: 45 | Plant response rating, Corn [6, 17]: 60 | Plant response rating, Corn [6, 18]: 70 | Plant response rating, Corn [6, 20]: 0 | Plant response rating, Corn [6, 21]: 40 | Plant response rating, Corn [6, 22]: 50 | Corn plant response rating [6, 23]: 50 | Plant response rating, Morningglory [7, 15]: 10 | Morningglory plant response rating (0 to 100 scale) [7, 16]: 60 | Plant response rating, Morningglory [7, 17]: 95 | Plant response rating, Morningglory [7, 18]: 95 | Plant response rating, Morningglory [7, 20]: 60 | Plant response rating, Morningglory [7, 21]: 95 | Plant response rating, Morningglory [7, 22]: 95 | Morningglory plant response rating [7, 23]: 95 | Ragweed plant response rating (0 to 100 scale) ([8]; 62 g ai/ha): 75 | Plant response rating, Ragweed [8, 17]: 95 | Plant response rating, Ragweed [8, 18]: 98 | Plant response rating, Ragweed [8, 20]: 80 | Plant response rating, Ragweed [8, 21]: 80 | Plant response rating, Ragweed [8, 22]: 95 | Ragweed plant response rating [8, 23]: 95 | Plant response rating, Blackgrass [9, 15]: 5 | Blackgrass plant response rating (0 to 100 scale) [9, 16]: 20 | Plant response rating, Blackgrass [9, 17]: 50 | Plant response rating, Blackgrass [9, 18]: 50 | Plant response rating, Blackgrass [9, 20]: 30 | Plant response rating, Blackgrass [9, 21]: 30 | Plant response rating, Blackgrass [9, 22]: 50 | Blackgrass plant response rating [9, 23]: 70 | Plant response rating, Kochia [10, 15]: 40 | Kochia plant response rating (0 to 100 scale) [10, 16]: 75 | Plant response rating, Kochia [10, 17]: 95 | Plant response rating, Kochia [10, 18]: 100 | Plant response rating, Kochia [10, 20]: 0 | Plant response rating, Kochia [10, 21]: 0 | Plant response rating, Kochia [10, 22]: 55 | Kochia plant response rating [10, 23]: 98 | Soybean plant response rating (0 to 100 scale) ([11]; 62 g ai/ha): 50 | Plant response rating, Soybean [11, 17]: 60 | Plant response rating, Soybean [11, 18]: 80 | Plant response rating, Soybean [11, 20]: 10 | Plant response rating, Soybean [11, 21]: 55 | Plant response rating, Soybean [11, 22]: 80 | Soybean plant response rating [11, 23]: 80 | Ryegrass, Italian plant response rating (0 to 100 scale) ([12]; 62 g ai/ha): 30 | Plant response rating, Ryegrass, Italian [12, 17]: 60 | Plant response rating, Ryegrass, Italian [12, 18]: 85 | Plant response rating, Ryegrass, Italian [12, 20]: 100 | Plant response rating, Ryegrass, Italian [12, 21]: 100 | Plant response rating, Ryegrass, Italian [12, 22]: 100 | Ryegrass, Italian plant response rating [12, 23]: 100 | Plant response rating, Foxtail, Green [13, 15]: 85 | Foxtail, Green plant response rating (0 to 100 scale) [13, 16]: 90 | Plant response rating, Foxtail, Green [13, 17]: 95 | Plant response rating, Foxtail, Green [13, 18]: 100 | Plant response rating, Foxtail, Green [13, 20]: 95 | Plant response rating, Foxtail, Green [13, 21]: 100 | Plant response rating, Foxtail, Green [13, 22]: 100 | Foxtail, Green plant response rating [13, 23]: 100 | Plant response rating, Crabgrass, Large [14, 15]: 75 | Crabgrass, Large plant response rating (0 to 100 scale) [14, 16]: 85 | Plant response rating, Crabgrass, Large [14, 17]: 95 | Plant response rating, Crabgrass, Large [14, 18]: 95 | Plant response rating, Crabgrass, Large [14, 20]: 100 | Plant response rating, Crabgrass, Large [14, 21]: 100 | Plant response rating, Crabgrass, Large [14, 22]: 100 | Crabgrass, Large plant response rating [14, 23]: 100
